Test results published in BigSolDB 2.1.

Cc1c(C(=O)c2c[nH]n(C)c2=O)ccc(S(C)(=O)=O)c1C1=NOCC1
solubility (mole fraction)
Conditions	283.15 K	288.15 K	293.15 K	298.15 K	303.15 K	308.15 K	313.15 K	318.15 K	323.15 K
in THF	0.00274	0.0031	0.00351	0.00397	0.00449	0.00509	0.00576	0.00652	0.00738
in acetone	0.00112	0.0013	0.00151	0.00176	0.00204	0.00236	0.00274	0.00318	0.0037
in acetonitrile	0.000648	0.000778	0.000934	0.00112	0.00134	0.00161	0.00194	0.00232	0.00279
in ethanol	6.16e-05	8.08e-05	0.000106	0.000139	0.000182	0.000239	0.000314	0.000412	0.000541
in ethyl acetate	0.000521	0.000624	0.000747	0.000894	0.00107	0.00128	0.00153	0.00183	0.0022
in isobutanol	4.16e-05	5.6e-05	7.53e-05	0.000101	0.000137	0.000184	0.000247	0.000333	0.000449
in isobutyl acetate	0.000421	0.000481	0.000549	0.000627	0.000716	0.000818	0.000934	0.00107	0.00122
in isopropanol	3.8e-05	5.11e-05	6.87e-05	9.23e-05	0.000124	0.000167	0.000224	0.000302	0.000405
in isopropyl acetate	0.000297	0.000353	0.00042	0.000499	0.000594	0.000706	0.000839	0.000997	0.00119
in methanol	0.000139	0.000173	0.000215	0.000267	0.000333	0.000414	0.000516	0.000642	0.000799
in methyl acetate	0.000989	0.00116	0.00135	0.00157	0.00184	0.00215	0.00251	0.00293	0.00342
in n-butanol	6.22e-05	8.09e-05	0.000105	0.000137	0.000178	0.000232	0.000301	0.000392	0.00051
in n-butyl acetate	0.000355	0.000419	0.000495	0.000584	0.00069	0.000815	0.000962	0.00114	0.00134
in n-propanol	5.61e-05	7.35e-05	9.63e-05	0.000126	0.000165	0.000217	0.000284	0.000372	0.000488
in n-propyl acetate	0.000415	0.000496	0.000594	0.00071	0.000849	0.00101	0.00121	0.00145	0.00173
in toluene	0.000256	0.0003	0.00035	0.00041	0.000479	0.00056	0.000655	0.000766	0.000895
